# From patent publication US4032536A, “(1H-Benzimidazol-2-yl)carbamates” (Janssen Pharmaceutica N.V., priority 1976, dated 1977)
# What was measured:
# Strongyloides ratti = test: Activity against Strongyloides ratti in rats; assay type: in vivo; details: po, young male Wistar rats, orally, treated on day 7 after infection, autopsied day 13, 50% reduction of number of worms vs untreated controls
# Description: (§1) Syphacia muris was selected as a test organism since this organism manifests its relationship with the human oxyuris, Enterobin vermicularis,by its life cycle, by the cyclical period of activity and by laying its eggs in the peri-anal zone. For artificial infections, adhesive cellophane tape is used to recover the eggs from the peri-anal skin and this tape is administered orally to rats. The thus-infected animals are housed in individual cages with food and water ad libitum. The compound to be tested is administered orally by gavage. A sterile saline solution or suspension of the compound is made at various concentrations corresponding to 40, 10, 2.5, 1.25, 0.63, 0.31 and 0.16 mg/kg body weight. Control animals receive the same amount of saline. Five days thereafter the animals are sacrificed. Coecum, colon and rectum are isolated and washed on a sieve of mesh 100. Table I gives the ED50 -values for a number of the compounds of formula (I). The compounds listed therein are not given for the purpose of limiting the invention thereto but only to exemplify the useful anthelmintic properties of all the compounds within the scope of formula (I).
# B. Activity against Strongyloides ratti in rats.
# Young male Wistar rats, weighing about 100 g are used in this test. Infective larvae of Strongyloides ratti are collected from charcoal cultures, put into a beaker with tapwater and stirred magnetically for counting. The rats are infected subcutaneously with about 1000 larvae, treated on day 7 after infection in the same manner as described in experiment A, and autopsied on day 13. The anterior part of the intestine is divided into two sections, each of 10 cm. length and placed inside out on a wood-applicator. These sections are incubated in physiological saline for 4 hours at 37° C. Worms obtained from the sedimentation of incubation saline are sampled and counted under a dissection microscope. In table I are given ED50 -values for a number of compounds of formula (I). These ED50 -values represent the amount of the compound under investigation in mg/kg which reduces the number of worms 50% with respect to the number found in the untreated control animals.
# Syphacia muris = test: Activity against Syphacia muris in rats; assay type: in vivo; details: po, 120 h, orally by gavage, autopsy five days after treatment
# Description: A. Activity against Syphacia muris in rats.
# as §1
Compound,ED50 (Strongyloides ratti) [mg/kg],ED50 (Syphacia muris) [mg/kg]
COC(=O)Nc1nc2ccc(C3(c4cccs4)OCCO3)cc2[nH]1,2.5,2.5
COC(=O)Nc1nc2ccc(C3(c4ccccc4)OCCO3)cc2[nH]1,0.63,1.25
COC(=O)Nc1nc2ccc(C3(c4ccc(F)cc4)OCCO3)cc2[nH]1,0.31,5
COC(=O)Nc1nc2ccc(C3(c4ccccc4)OCC(C)O3)cc2[nH]1 (stereo not shown),0.31,2.5
COC(=O)Nc1nc2ccc(C3(c4ccccc4)OC(C)C(C)O3)cc2[nH]1 (stereo not shown),1.25,2.5
COC(=O)Nc1nc2ccc(C3(c4cccs4)OC(C)C(C)O3)cc2[nH]1 (stereo not shown),10,2.5
COC(=O)Nc1nc2ccc(C3(c4cccs4)OCC(C)O3)cc2[nH]1 (stereo not shown),10,10
COC(=O)Nc1nc2ccc(C3(c4ccccc4)OCC(C)(C)CO3)cc2[nH]1,2.5,10
COC(=O)Nc1nc2ccc(C3(c4cccs4)OCC(C)(C)CO3)cc2[nH]1,10,40
COC(=O)Nc1nc2ccc(C3(c4cccs4)OCCC(C)O3)cc2[nH]1 (stereo not shown),10,10
COC(=O)Nc1nc2ccc(C3(c4ccccc4)OCCC(C)O3)cc2[nH]1 (stereo not shown),1.25,40
